In patent publication US11466024B2, “Bicylic compound acting as an inhibitor” (CHIA TAI TIANQING PHARMACEUTICAL GROUP CO., LTD., priority 2017, dated 2022):

Experiments:
[1] = target: hERG potassium channel (Homo sapiens, UniProt Q12809); experiment: Inhibition test of hERG potassium channel (QPatch, CHO-hERG cells)
Protocol: CHO-hERG cells (from Shanghai Institute of Materia Medica, Chinese Academy of Sciences) were cultured in a 175 cm^2 culture flask. When the cell density reached 60% to 80%, the culture medium was removed, the cells were washed once with 7 mL of PBS, and then 3 mL of Detachin was added for cell detachment. After complete cell detachment, 7 mL of culture medium were added for neutralization, the mixture was then centrifuged, the supernatant was aspirated, and another 5 mL of culture medium was added for re-suspension, so as to ensure that the cell density was 2×10^6/mL to 5×10^6/mL.
The single-cell giga-seal and the formation of whole-cell mode were both completed automatically by a Q patch instrument. After a whole-cell recording mode was achieved, the cells were clamped at −80 mV, exposed to a front voltage of −50 mV for 50 ms prior to a depolarizing stimulus (5 s, +40 mV), and then repolarized to −50 mV for 5 s, followed by a recovery to −80 mV. This voltage stimulation was applied every 15 s and recorded for 2 minutes, and the extracellular fluid was then administered, followed by a record lasting for 5 minutes. Thereafter, the administration process was started. Starting from the lowest test concentration, the compounds were administered at each test concentration and the process lasted for 2.5 minutes. […] At least 3 cells (n≥3) were tested at each concentration.
20 mM stock solution of the compound was diluted with the extracellular fluid, and 5 μL of the 20 mM stock solution of the compound was taken, added to 2495 μL of the extracellular fluid, and diluted by 500 times to 40 μM. Thereafter, the resulting mixture was serially and successively diluted by 3 times in an extracellular fluid containing 0.2% DMSO, so as to obtain a final concentration to be tested.
The experimental data was analyzed by XLFit software.

[2] = target: T1, RORC2-LBD (Homo sapiens, UniProt P51449); experiment: In vitro test for inhibitory activity on RORγ: TR-FRET screening (RORC2-LBD / SRC1 peptide interaction); type: biochemical; settings: Value of the concentration required for 50% inhibition (EC50) of RORγ, 15 nM RORc-LBD, 200 nM SRC1 peptide, 4° C. overnight
T1 sequence (P51449 269-508 limits assumed): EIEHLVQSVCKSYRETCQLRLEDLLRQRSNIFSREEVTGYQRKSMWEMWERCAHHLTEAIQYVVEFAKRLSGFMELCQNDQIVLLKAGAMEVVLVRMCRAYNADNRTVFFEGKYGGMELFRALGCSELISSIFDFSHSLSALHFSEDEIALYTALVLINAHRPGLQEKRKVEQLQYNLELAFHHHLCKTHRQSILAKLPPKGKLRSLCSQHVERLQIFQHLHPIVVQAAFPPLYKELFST
Source text: The compounds of the present application was able to regulate (inhibit) the bioactivity of the nuclear receptor RORγ, and the strength of this regulatory (inhibitory) effect could be evaluated by a TR-FRET (time-resolved fluorescence resonance energy transfer) screening system. Nuclear receptor cofactors (co-activators and co-inhibitors) could regulate the transcription of a target gene by the interaction with nuclear receptors. If a ligand (test compound) affected the interaction between the nuclear receptors and the cofactors, this ligand (test compound) was able to regulate the transcription of the corresponding gene.
This method adopted the TR-FRET (time-resolved fluorescence resonance energy transfer) technique to determine the ability of a compound to regulate the interaction between the polypeptide indirectly bound to APC […] (namely, APC was indirectly bound to the polypeptide by binding to Streptavidin and biotin) and RORC2-LBD linked to a europium (Eu)-labeled anti-His antibody (Perkin Elmer #AD0111). In the absence of the compound, RORC2 could bind to an APC-modified polypeptide. If the compound was an agonist, it could enhance the interaction between RORC2 and the APC-modified polypeptide after binding to RORC2. On the contrary, if the compound was an inverse agonist, it could inhibit the interaction between RORC2 and the APC-modified polypeptide after binding to RORC2. When the APC-modified polypeptide and the Eu-labeled anti-His antibody-RORC2-LBD complex approached to each other and the distance therebetween was within a certain distance, energy transfer could occur and a TR-FRET signal was generated.
A buffer solution comprising 50 mM Tris (pH 7.0), 50 mM KCl, 1 mM Na-EDTA, 0.01% BSA (0.1 mg/ml), and 0.1 mM DTT was freshly formulated prior to the experiment.
2.3 Formulation of a RORγ-containing working solution. Prior to the test, a working solution containing 1.67 nM Eu/anti-His and 0.75 μl/well of SF9 cell lysate was freshly formulated, and was placed on ice before use. 25.05 nM of RORγ was added to the working solution.
2.5 Ten concentration gradients were set for each test compound, and duplicate wells were set for each concentration. The formulating method of the test compounds was as follows: […]
2) 15 μl of the RORγ-containing working solution was added to columns 1 to 21 of the tested 384-well plate (the final concentration of Eu/anti-His was 1 nM, and the final concentration of RORg was 15 nM); and […]
9) data analysis was performed using the ratio of the numerical value detected at an emission wavelength of 665 nm to the numerical value detected at an emission wavelength of 615 nm. […]

hERG potassium channel, sequence (Q12809 whole entry): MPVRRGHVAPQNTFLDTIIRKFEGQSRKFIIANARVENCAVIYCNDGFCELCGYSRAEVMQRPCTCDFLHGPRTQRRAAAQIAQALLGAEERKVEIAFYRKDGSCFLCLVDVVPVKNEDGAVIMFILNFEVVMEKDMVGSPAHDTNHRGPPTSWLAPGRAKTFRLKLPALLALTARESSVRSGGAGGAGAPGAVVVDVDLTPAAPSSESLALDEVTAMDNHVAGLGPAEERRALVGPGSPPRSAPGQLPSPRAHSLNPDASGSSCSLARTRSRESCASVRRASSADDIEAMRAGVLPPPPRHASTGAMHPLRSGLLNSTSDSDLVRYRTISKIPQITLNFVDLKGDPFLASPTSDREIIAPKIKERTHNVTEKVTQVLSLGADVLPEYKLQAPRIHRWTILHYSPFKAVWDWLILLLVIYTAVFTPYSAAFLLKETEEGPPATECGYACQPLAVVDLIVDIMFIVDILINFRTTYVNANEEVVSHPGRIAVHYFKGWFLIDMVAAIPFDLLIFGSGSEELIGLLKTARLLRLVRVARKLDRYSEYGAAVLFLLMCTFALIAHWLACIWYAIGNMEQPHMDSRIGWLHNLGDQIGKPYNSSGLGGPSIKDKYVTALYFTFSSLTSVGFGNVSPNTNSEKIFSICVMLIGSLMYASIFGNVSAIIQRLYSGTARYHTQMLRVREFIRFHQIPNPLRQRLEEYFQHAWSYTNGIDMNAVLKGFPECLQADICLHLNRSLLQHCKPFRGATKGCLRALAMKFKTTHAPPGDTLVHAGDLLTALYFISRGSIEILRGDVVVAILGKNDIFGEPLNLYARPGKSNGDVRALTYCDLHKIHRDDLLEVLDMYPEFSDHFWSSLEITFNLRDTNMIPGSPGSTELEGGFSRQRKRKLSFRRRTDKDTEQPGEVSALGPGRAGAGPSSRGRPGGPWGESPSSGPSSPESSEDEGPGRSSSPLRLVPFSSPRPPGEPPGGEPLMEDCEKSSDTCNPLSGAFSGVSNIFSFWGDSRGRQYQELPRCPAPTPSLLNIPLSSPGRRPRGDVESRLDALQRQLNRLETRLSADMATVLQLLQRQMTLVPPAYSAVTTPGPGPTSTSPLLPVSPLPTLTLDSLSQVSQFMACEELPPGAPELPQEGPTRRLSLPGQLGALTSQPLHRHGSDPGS

CCS(=O)(=O)c1ccc(CNC(=O)c2cc3c(s2)C(C(C)C)N(C[C@H]2CC[C@H](C(F)(F)F)CC2)C3)nc1 (single isomer, unassigned) [Example 1]
IC50 [1]: > 40 µM | inhibition at 2.5 min, 40 μM ([1]; human): 26.3% | EC50 [2]: < 0.1 µM
